From US6548540B2, “Method of treating cancer using dithiocarbamate derivatives” (Charlotte-Mecklenburg Hospital Authority, priority 1998, dated 2003)

Assays:
M1619 melanoma cells = assay: MTT proliferation assay, M1619 melanoma; assay type: cell-based, human; details: for antiproliferative activity of gold complexed with disulfiram: M1619, compared with DS 160 nM
Protocol: (§1) Human malignant cell lines were obtained from American Type Tissue Culture Collection (Rockville, Md.). Melanoma cells lines CRL 1585 and 1619 were cultured in RPMI 1640 (GIBCO-BRL, Life Technologies, Grand Island, N.Y.) with 10% FBS and passed with nonenzymatic Cell Dissociation Solution® (Sigma). The prostate adenocarcinoma cell line CRL 1435 (PC-3) was also cultured in RPMI 1640 with 10% FBS but passed with 0.05% trypsin and 0.53 mM EDTA. The squamous lung carcinoma NCI-H520 and the adenosquamous lung carcinoma NCI-H596 cell lines were grown in RPMI 1640 supplemented with 10% FBS, 10 mM HEPES and 1.0 mM sodium pyruvate and passed with trypsin/EDTA. The small cell lung carcinoma NCI-H82 was cultured as a suspension in RPMI 1640 with 10% FBS. All of the above were grown in a 37° C. humidified environment containing 5% CO2/air. The breast carcinoma cell line MDA-MB-453 was grown in a 37° C. humidified environment with free gas exchange with atmospheric air using Leibovitz's L-15 medium with 2 mM L-glutamine and 10% FBS and was passed with trypsin/EDTA.
The effect of disulfiram (0.15 to 5.0 μM), diethyldithiocarbamate (DDC, 1.0 μM) or PDTC (0.625 to 5.0 μM) on proliferation of malignant cell lines was studied in cultures stimulated with 10% FBS. Cell numbers were quantitated 24-72 hours later. In some experiments disulfiram or PDTC were added immediately after cells were plated. In other experiments, cells were plated and allowed to grow for 24-72 hours before fresh media with disulfiram or PDTC was added, and cell numbers were assayed 24-72 hours later.
Finally, a number of dithiocarbamate effects on cells have been attributed to increasing the intracellular levels of copper ions. To further probe the role of copper in mediating cytotoxicity from disulfiram, cells were cultured with or without addition of the impermeate Cu^2+ chelator bathocuprioinedisulfonic acid (BCPS, 100 μM) added to medium to sequester Cu^2+ in the extracellular compartment. Cells were also treated 12 hours with various concentration of disulfiram (0.625 to 5.0 μM) and intracellular copper levels were measured as outlined below.
Proliferation of cultured cells was quantitated using a previously reported calorimetric method based upon metabolic reduction of the soluble yellow tetrazolium dye 3-[4,5-dimethylthiazol]-2yl-2,5-diphenyl tetrazolium bromide (MTT) to its insoluble purple formazan by the action of mitochondrial succinyl dehydrogenase (See, e.g., S. J. Hirst, et al., “Quantifying proliferation of cultured human and rabbit airway smooth muscle in response to serum and platelet derived growth factor,” Am. J. Respir. Cell Mol. Biol. 7:574-581 (1992); R. Dashtaki, et al. R., supra; S. S. Brar, et al., “Requirement for reactive oxygen species in serum-induced and platelet-derived growth factor-induced growth of airway smooth muscle,” J. Biol. Chem. 274:20017-20026 (1999)). This assay empirically distinguishes between dead and living cells. For proliferation studies, cells were seeded into 24-well uncoated plastic plates (Costar) at 50,000 cells per well and cultured with respective media and mitogens.

tumor cell lines = assay: Proliferation of tumor cell lines with redox, NO synthase or cyclooxygenase agents (cell line not given); assay type: cell-based, human
Protocol: Potential redox effects of disulfiram were studied in three sets of experiments. The importance of cellular glutathione (GSH) in mediating or modulating thiocarbamate toxicity was studied by measuring levels of intracellular GSH after treatment with disulfiram. […] Also, to assess whether a nonspecific antioxidant effect of disulfiram or PDTC might account for cellular growth inhibition, we studied the effect of the potent lipophilic antioxidant probucol (1.0 to 1,000 μM) on proliferation of malignant cell lines. […] To explore the role of cyclooxygenase inhibition on tumor cell growth, cells were cultured with or without disulfiram in the presence or absence of the cyclooxygenase-1 (COX1) and cyclooxygenase-2 (COX2) inhibitors indomethacin (5μg/ml) or sodium salicylate (1 mM). To probe whether disulfiram might be inducing growth retardation by interruption or stimulation of NO production, proliferation was studied with and without disulfiram in the presence and absence of the nitric oxide […] inhibitor Nω-nitro-L-arginine added to growth medium (100 μM). […] J. Respir. Cell Mol. Biol. 7:574-581 (1992); […], et al. R., supra; S. S. Brar, et al., “Requirement for reactive oxygen species in serum-induced and platelet-derived growth factor-induced growth of airway smooth muscle,” J. Biol. Chem. 274:20017-20026 (1999)). This assay empirically distinguishes between dead and living cells. For proliferation studies, cells were seeded into 24-well uncoated plastic plates (Costar) at 50,000 cells per well and cultured with respective media and mitogens. […] MTT-containing medium was removed, 0.5 ml dimethylsulfoxide (DMSO) was added to each well, and the absorbance of the solubilized purple formazan dye was measured at 540 nm. A total of 4-6 wells were studied at each treatment condition.

Melanoma M1585 = assay: MTT proliferation assay, M1585 melanoma; assay type: cell-based; details: Homo sapiens; M1585 melanoma cells; read-out: 50% inhibitor concentration (IC50)
Protocol: as §1
The effect of disulfiram (0.15 to 5.0 μM), diethyldithiocarbamate (DDC, 1.0 μM) or PDTC (0.625 to 5.0 μM) on proliferation of malignant cell lines was studied in cultures stimulated with 10% FBS. Cell numbers were quantitated 24-72 hours later. In some experiments disulfiram or PDTC were added immediately after cells were plated. In other experiments, cells were plated and allowed to grow for 24-72 hours before fresh media with disulfiram or PDTC was added, and cell numbers were assayed 24-72 hours later. Synergy was studied between disulfiram and N,N′-bis(2-chloroethyl-N-nitrosourea (carmustine or BCNU, 1.0 to 1,000 μM) or cisplatin (0.1 to 100 μg/ml) added to medium. The effect of metals on disulfiram was studied with 0.2 to 10 μM copper (provided as CuSO4), zinc (as ZnCl2), silver (as silver lactate) or gold (as HAuCl4.3H2O) ions added to growth medium. No pH changes occurred with addition of metal salts to culture medium. To provide a biologically relevant source of copper, in some experiments medium was supplemented with human ceruloplasmin at doses replicating low and high normal adult serum concentrations (250 and 500 μg/ml).
Proliferation of cultured cells was quantitated using a previously reported calorimetric method based upon metabolic reduction of the soluble yellow tetrazolium dye 3-[4,5-dimethylthiazol]-2yl-2,5-diphenyl tetrazolium bromide (MTT) to its insoluble purple formazan by the action of mitochondrial succinyl dehydrogenase (See, e.g., S. J. Hirst, et al., “Quantifying proliferation of cultured human and rabbit airway smooth muscle in response to serum and platelet derived growth factor,” Am. J. Respir. Cell Mol. Biol. 7:574-581 (1992); R. Dashtaki, et al. R., supra; S. S. Brar, et al., “Requirement for reactive oxygen species in serum-induced and platelet-derived growth factor-induced growth of airway smooth muscle,” J. Biol. Chem. 274:20017-20026 (1999)). This assay empirically distinguishes between dead and living cells. For proliferation studies, cells were seeded into 24-well uncoated plastic plates (Costar) at 50,000 cells per well and cultured with respective media and mitogens. After 24-96 hours, medium was removed, cells were washed twice with 1 ml of sterile Dulbecco's modified phosphate buffered saline without Ca^2+ or Mg^2+ (DPBS), the medium was replaced with 1 ml/well fresh medium containing 100 μg/ml MTT, and plates were incubated an additional hour. MTT-containing medium was removed, 0.5 ml dimethylsulfoxide (DMSO) was added to each well, and the absorbance of the solubilized purple formazan dye was measured at 540 nm. A total of 4-6 wells were studied at each treatment condition. Preliminary studies were performed with 50-200 μg/ml MTT incubated for 15 minutes to 3 hours to determine the optimum concentration and incubation time at which the rate of conversion was linear and proportional to the number of cells present. […]

Molecule: dichloro(diethylthiocarbamyl)gold (II) [AuDS]
- antiproliferative activity of gold complexed with disulfiram (M1619 melanoma cells; 48 hr): enhanced antiproliferative activity
- antiproliferative activity of gold complexed with disulfiram (M1619 melanoma cells; 48 hr, listed as complex of gold with disulfiram): antiproliferative at nM concentrations

Molecule: Cc1cc(-c2ccc(S(=O)(=O)O)cc2)c2ccc3c(-c4ccc(S(=O)(=O)O)cc4)cc(C)nc3c2n1 [BCPS, bathocuproinedisulfonic acid]
- effect of Cu2+ chelator on growth inhibition from disulfiram (M1619 melanoma cells; 1.25 μM disulfiram with 50 or 100 μM BCPS, 48 hr): greatly reduces growth inhibition

Molecule: CC(C)(Sc1cc(C(C)(C)C)c(O)c(C(C)(C)C)c1)Sc1cc(C(C)(C)C)c(O)c(C(C)(C)C)c1 [probucol]
- growth of tumor cell lines (tumor cell lines; probucol 1.0 to 1,000 μM, data not shown): did not significantly inhibit growth

Molecule: N=C(NCCC[C@H](N)C(=O)O)N[N+](=O)[O-] [LNAME, Nω-nitro-L-arginine]
- increase of cellular growth (tumor cell lines; LNAME alone (100 μM), vs DMSO vehicle control): 23.7±2.3%

Molecule: [Cl-].[Cl-].[Zn+2] [zinc chloride]
- effect of zinc on antiproliferative potential of disulfiram (M1619 melanoma cells; ZnCl2 with 0.625 μM disulfiram, grown 24 hours, additional 24 hr): substantially enhanced

Molecule: O=NN(CCCl)C(=O)NCCCl [Carmustine]
- A540 of MTT Formazan (M1619 melanoma cells; carmustine 1 μM + DMSO vehicle, 24 hours): 0.197 ± 0.004
- A540 of MTT Formazan (M1619 melanoma cells; carmustine 10 μM + DMSO vehicle, 24 hours): 0.152 ± 0.011
- A540 of MTT Formazan (M1619 melanoma cells; carmustine 100 μM + DMSO vehicle, 24 hours): 0.020 ± 0.002
- A540 of MTT Formazan (M1619 melanoma cells; carmustine 1,000 μM + DMSO vehicle, 24 hours): 0.003 ± 0.000

Molecule: CCN(CC)C(=S)[S-].O.O.O.[Na+] [NaDDC, sodium diethyldithiocarbamate trihydrate]
- antiproliferative activity of the thiolate with DTT in medium (M1619 melanoma cells; NaDDC 1 μM plus DTT 100 μM, 48 hours): reduced by low concentrations of DTT

Molecule: S=C(S)N1CCCC1 [PDTC, Pyrrolidinedithiocarbamate]
- IC50 (Melanoma M1585): ~1250 nM

Molecule: N.N.[Cl][Pt][Cl] [Cisplatin, cisplatin]
- A540 of MTT Formazan (M1619 melanoma cells; cisplatin 1 ng/ml + DMSO vehicle, added after 48 hours, additional 24 hours): 1.739 ± 0.041
- A540 of MTT Formazan (M1619 melanoma cells; cisplatin 10 ng/ml + DMSO vehicle, added after 48 hours, additional 24 hours): 1.447 ± 0.047
- A540 of MTT Formazan (M1619 melanoma cells; cisplatin 100 ng/ml + DMSO vehicle, added after 48 hours, additional 24 hours): 1.372 ± 0.052
- A540 of MTT Formazan (M1619 melanoma cells; cisplatin 1,000 ng/ml + DMSO vehicle, added after 48 hours, additional 24 hours): 1.381 ± 0.098

B1: ceruloplasmin: 132-kD glycoprotein carrying 7 copper atoms, the major copper-carrying protein in human plasma (protein, UniProt P00450 20-1065, looked up)
Ceruloplasmin: KEKHYYIGIIETTWDYASDHGEKKLISVDTEHSNIYLQNGPDRIGRLYKKALYLQYTDETFRTTIEKPVWLGFLGPIIKAETGDKVYVHLKNLASRPYTFHSHGITYYKEHEGAIYPDNTTDFQRADDKVYPGEQYTYMLLATEEQSPGEGDGNCVTRIYHSHIDAPKDIASGLIGPLIICKKDSLDKEKEKHIDREFVVMFSVVDENFSWYLEDNIKTYCSEPEKVDKDNEDFQESNRMYSVNGYTFGSLPGLSMCAEDRVKWYLFGMGNEVDVHAAFFHGQALTNKNYRIDTINLFPATLFDAYMVAQNPGEWMLSCQNLNHLKAGLQAFFQVQECNKSSSKDNIRGKHVRHYYIAAEEIIWNYAPSGIDIFTKENLTAPGSDSAVFFEQGTTRIGGSYKKLVYREYTDASFTNRKERGPEEEHLGILGPVIWAEVGDTIRVTFHNKGAYPLSIEPIGVRFNKNNEGTYYSPNYNPQSRSVPPSASHVAPTETFTYEWTVPKEVGPTNADPVCLAKMYYSAVEPTKDIFTGLIGPMKICKKGSLHANGRQKDVDKEFYLFPTVFDENESLLLEDNIRMFTTAPDQVDKEDEDFQESNKMHSMNGFMYGNQPGLTMCKGDSVVWYLFSAGNEADVHGIYFSGNTYLWRGERRDTANLFPQTSLTLHMWPDTEGTFNVECLTTDHYTGGMKQKYTVNQCRRQSEDSTFYLGERTYYIAAVEVEWDYSPQREWEKELHHLQEQNVSNAFLDKGEFYIGSKYKKVVYRQYTDSTFRVPVERKAEEEHLGILGPQLHADVGDKVKIIFKNMATRPYSIHAHGVQTESSTVTPTLPGETLTYVWKIPERSGAGTEDSACIPWAYYSTVDQVKDLYSGLIGPLIVCRRPYLKVFNPRRKLEFALLFLVFDENESWYLDDNIKTYSDHPEKVNKDDEEFIESNKMHAINGRMFGNLQGLTMHVGDEVNWYLMGMGNEIDLHTVHFHGHSFQYKHRGVYSSDVFDIFPGTYQTLEMFPRTPGIWLLHCHVTDHIHAGMETTYTVLQNEDTKSG
- effect of ceruloplasmin on antiproliferative activity of disulfiram (M1619 melanoma cells; ceruloplasmin 500 μg/ml with disulfiram, 24 hours): enhance the antiproliferative activity of disulfiram
